Like-named read-outs stand apart in the source and are kept apart here.
What was measured:
[1] = system: mononucleotide repeat loci (mBat markers); type: in vivo, C57BL/6 mice
[2] = system: mtDNA (Δ-mtDNA4977 deletion); type: in vivo, C57BL/6 mice; details: old age paraquat-treated group, three mice
Protocol: […] mice were housed and inbred at the University of Wisconsin, with an average life span ˜30 months. Four groups of three mice were included in the study: 5-month old mice (young control or YC); 5-month old mice treated with paraquat; 24-month old mice (old age); and 24-month old mice treated with paraquat. Paraquat-treated animals received a single intraperitoneal injection of 50 mg/kg body weight dissolved in PBS 24 hours after their last feeding. Each mouse was sacrificed by cervical dislocation.
The entire liver from each mouse was dissected, washed with PBS, placed in a 1.5 ml Ependorf tube, snap frozen in liquid nitrogen, and stored at −80° C. DNA was prepared from the mouse liver tissue by using the DNA-IQ Tissue and Hair Extraction Kit (Promega Corporation, Madison, Wis.) and was quantified using the PicoGreen dsDNA Quantitative Kit (Molecular Probes, Eugene, Oregon) following manufacturers protocols.
Based on the mouse mtDNA sequence, four fluorescence labeled primer pairs were designed to detect both wildtype sequences and mtDNA deletions. […]
Separation and detection of amplified fragments was performed on an ABI PRISM® 3100 Genetic Analyzer following the manufacturer's protocol (Applied Biosystems, Foster City, Calif.). Data was analyzed with the GeneScan and Genotyper computer software packages (Applied Biosystems). […]

[3] = system: microsatellite markers in human fibroblast cell line #AG01522
Protocol: human fibroblast cell line #AG01522 from Coriell Cell Repository were cultured in MEM Eagle-Earle BSS 2× concentration of essential and non-essential amino acids and vitamins with 2 mM L-glutamine, 10% fetal bovine serum, 0.5 Units/ml of penicillin, 0.5 μg/ml of streptomycin. Cell cultures were grown at 37° C. and 5% CO2 under sterile conditions and split at a ratio of 1:5 when cells were confluent by releasing cells with trypsin-EDTA treatment. […] Cells were pelleted and DNA extracted.
Mutant alleles were identified by small-pool PCR as described in Example B above using primer pairs specific for microsatellite markers (Tables 2 and 7) including: (1) mononucleotide repeat markers (NR-21, NR-24, BAT-25, BAT-26 and MONO-27); (2) extended mononucleotide repeat markers (hBAT-51d, hBAT-52a, hBAT-53c, hBAT59a, hBAT-60a and hBAT-62); (3) tetranucleotide repeat markers on autosomal chromosomes (D7S3070, D7S3046, D7S1808, D10S1426 and D3S2432); (4) tri-, tetra- and penta-nucleotide repeats on the Y chromosome (DYS391, DYS389 I, DYS389 II, DYS438, DYS437, DYS19, DYS392, DYS393, DYS390, and DYS385); and (5) penta-nucleotide repeats Penta B, C, D, and E (Bacher, et al. 1999.

## C[n+]1ccc(-c2cc[n+](C)cc2)cc1 [Paraquat]
[1]; mBat-24, Old w/Paraquat
  Mutation Freq: 0.000
[1]; mBat-24, Old w/Paraquat, 318 alleles
  # Mutants: 0
[1]; mBat-24, Young w/ Paraquat
  Mutation Freq: 0.002
[1]; mBat-24, Young w/ Paraquat, 648 alleles
  # Mutants: 1
[1]; mBat-26, Old w/Paraquat
  Mutation Freq: 0.000
[1]; mBat-26, Old w/Paraquat, 340 alleles
  # Mutants: 0
[1]; mBat-26, Young w/ Paraquat
  Mutation Freq: 0.000
[1]; mBat-26, Young w/ Paraquat, 457 alleles
  # Mutants: 0
[1]; mBat-30, Old w/Paraquat
  Mutation Freq: 0.000
[1]; mBat-30, Old w/Paraquat, 344 alleles
  # Mutants: 0
[1]; mBat-30, Young w/ Paraquat
  Mutation Freq: 0.000
[1]; mBat-30, Young w/ Paraquat, 704 alleles
  # Mutants: 0
[1]; mBat-37, Old w/Paraquat
  Mutation Freq: 0.000
[1]; mBat-37, Old w/Paraquat, 306 alleles
  # Mutants: 0
[1]; mBat-37, Young w/ Paraquat
  Mutation Freq: 0.001
[1]; mBat-37, Young w/ Paraquat, 992 alleles
  # Mutants: 1
[1]; mBat-49, Old w/Paraquat
  Mutation Freq: 0.000
[1]; mBat-49, Old w/Paraquat, 194 alleles
  # Mutants: 0
[1]; mBat-51a, Old w/Paraquat
  Mutation Freq: 0.000
[1]; mBat-51a, Old w/Paraquat, 240 alleles
  # Mutants: 0
[1]; mBat-51b, Old w/Paraquat
  Mutation Freq: 0.000
[1]; mBat-51b, Old w/Paraquat, 186 alleles
  # Mutants: 0
[1]; mBat-52, Old w/Paraquat
  Mutation Freq: 0.000
[1]; mBat-52, Old w/Paraquat, 44 alleles
  # Mutants: 0
[1]; mBat-59, Old w/Paraquat
  Mutation Freq: 0.013
[1]; mBat-59, Old w/Paraquat, 448 alleles
  # Mutants: 6
[1]; mBat-59, Young w/ Paraquat
  Mutation Freq: 0
[1]; mBat-59, Young w/ Paraquat, 636 alleles
  # Mutants: 4
[1]; mBat-61a, Old w/Paraquat
  Mutation Freq: 0.005
[1]; mBat-61a, Old w/Paraquat, 428 alleles
  # Mutants: 2
[1]; mBat-64, Old w/Paraquat
  Mutation Freq: 0.019
[1]; mBat-64, Old w/Paraquat, 412 alleles
  # Mutants: 8
[1]; mBat-64, Young w/ Paraquat
  Mutation Freq: 0
[1]; mBat-64, Young w/ Paraquat, 443 alleles
  # Mutants: 1
[1]; mBat-66, Old w/Paraquat
  Mutation Freq: 0.018
[1]; mBat-66, Old w/Paraquat, 448 alleles
  # Mutants: 8
[1]; mBat-66, Young w/ Paraquat
  Mutation Freq: 0
[1]; mBat-66, Young w/ Paraquat, 592 alleles
  # Mutants: 3
[1]; mBat-67, Old w/Paraquat
  Mutation Freq: 0.051
[1]; mBat-67, Old w/Paraquat, 394 alleles
  # Mutants: 20
[1]; mBat-67, Young w/ Paraquat
  Mutation Freq: 0
[1]; mBat-67, Young w/ Paraquat, 334 alleles
  # Mutants: 1
[1]; old paraquat-treated group, out of 1608 alleles
  mutations in loci mBAT-24, mBAT-26, mBat-30, or mBAT-37: no mutations
[1]; paraquat-treated old age group, SP-PCR, (25/1649)
  mutations in mononucleotide repeat alleles assayed, loci mBAT-59, mBAT-64, mBAT-66 or mBAT-67: over 1.8%
[2]
  Δ-mtDNA4977 detected (mice of group): All three mice in the old age paraquat-treated group showed Δ-mtDNA4977

## OO [hydrogen peroxide]
[3]; cells exposed to 0.1 to 1.2 mM hydrogen peroxide for 1 hour, 3 days recovery
  mutations in extended mononucleotide repeats, Y-STRs and A-rich pentanucleotide repeats: Mutations were detected
[3]; cells exposed to hydrogen peroxide, 0/1,526 alleles
  mutations in short mononucleotide repeat markers NR-21, NR-24, BAT-25, BAT-26 or MONO-27: No mutations
